How the values were obtained:
Molm-13 cells = assay: Leukemia cell proliferation inhibition test (ATPlite), Molm-13; assay type: cell-based; settings: Homo sapiens, MOLM-13, MOLM13 cell; read-out: MOLM13 cell proliferation inhibition effect
How it was run: (§1)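 72 h proliferation, 37° C/5% CO2; 10,000 cells/well, RPMI/10% FBS; ATPlite luminescence (RLU); 0.1% DMSO taken as 0% inhibition; GI50 via sigmoid fit, n=2.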

MV4-11 cells = assay: Leukemia cell proliferation inhibition test (ATPlite), MV4-11; assay type: cell-based; settings: Homo sapiens, MV4-11, MV4-11 cell; read-out: MV4-11 cell proliferation inhibition effect
How it was run: as §1

[1] = target: T1, human FLT3 protein (FLT3 (WT)) (Homo sapiens, UniProt P36888); assay: FLT3 inhibition test (FLT3 enzyme inhibition, time-resolved fluorescence of substrate peptide phosphorylation); assay type: biochemical; settings: FLT3 (WT); read-out: FLT3 (WT) enzyme inhibition activity
T1 construct: human FLT3 protein (intracellular region, 564 to 993 aa); GST; purchased Carna Biosciences; host or cells: baculovirus expression system
T1 sequence (P36888 564-993): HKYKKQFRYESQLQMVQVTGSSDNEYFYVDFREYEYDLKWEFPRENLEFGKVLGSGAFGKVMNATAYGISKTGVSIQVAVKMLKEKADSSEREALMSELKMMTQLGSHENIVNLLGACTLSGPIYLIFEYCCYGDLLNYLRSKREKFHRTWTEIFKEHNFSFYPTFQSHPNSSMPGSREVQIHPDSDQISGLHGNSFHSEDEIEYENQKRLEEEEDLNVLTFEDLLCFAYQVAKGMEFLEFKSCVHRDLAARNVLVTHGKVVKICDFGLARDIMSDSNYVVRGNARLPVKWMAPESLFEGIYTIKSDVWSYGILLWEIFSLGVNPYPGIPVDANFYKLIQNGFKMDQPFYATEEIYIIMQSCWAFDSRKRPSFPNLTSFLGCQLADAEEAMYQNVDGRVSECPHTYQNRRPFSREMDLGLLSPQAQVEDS
How it was run: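 Wild-type human FLT3 (1.2 μg) pre-incubated with compound 15 min at 25° C in 100 mM HEPES pH 7.5, 10 mM MgCl2, 25 mM NaCl, 1 mM DTT. Reaction started with substrate peptide and ATP (final 50 μM), run 30 min at 25° C; phosphorylation read by time-resolved fluorescence.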

Row | IC50 (Molm-13 cells) [µM] | IC50 (MV4-11 cells) [µM] | IC50 [1] [µM] | SMILES
1 | 0.01 to 0.1 | < 0.01 | < 0.01 | CCCNc1nc(Nc2cncc(F)c2)ncc1C#CCCCNC(=O)[C@H](C)N(C)C(=O)/C=C/CN(C)C [Compound 22-8]
2 | 0.01 to 0.1 | 0.01 to 0.1 | < 0.01 | CCCNc1nc(Nc2cncc(Cl)c2)ncc1C#CCCCNC(=O)[C@H](C)N(C)C(=O)/C=C/CN(C)C [Compound 22-9]
3 | < 0.01 | < 0.01 | < 0.01 | CCCNc1nc(Nc2ccc3c(cnn3CCOC)c2)ncc1C#CCCCNC(=O)[C@H](C)N(C)C(=O)/C=C/CN(C)C [Compound 22-10]
4 | < 0.01 | < 0.01 | < 0.01 | CCCNc1nc(Nc2ccc3cnn(CCOC)c3c2)ncc1C#CCCCNC(=O)[C@H](C)N(C)C(=O)/C=C/CN(C)C [Compound 22-11]
5 | < 0.01 | < 0.01 | < 0.01 | CCCNc1nc(Nc2ccc3c(c2)c(N(C)C)nn3C)ncc1C#CCCCNC(=O)[C@H](C)N(C)C(=O)/C=C/CN(C)C [Compound 22-12]
6 | 0.01 to 0.1 | 0.1 to 1 | 0.01 to 0.1 | CCCNc1nc(Nc2cc(F)c3c(c2)c(N(C)C)nn3C)ncc1C#CCCCNC(=O)[C@H](C)N(C)C(=O)/C=C/CN(C)C [Compound 22-13]
7 | < 0.01 | < 0.01 | < 0.01 | CCCNc1nc(Nc2ccc3c(c2)c(OC)nn3CCOC)ncc1C#CCCCNC(=O)[C@H](C)N(C)C(=O)/C=C/CN(C)C [Compound 22-14]
8 | 0.01 to 0.1 | 0.01 to 0.1 | < 0.01 | CCCNc1nc(Nc2ccc(-n3cccn3)cc2)ncc1C#CCCCNC(=O)[C@H](C)N(C)C(=O)/C=C/CN(C)C [Compound 22-15]
9 | 0.01 to 0.1 | 0.01 to 0.1 | 0.01 to 0.1 | CCCNc1nc(Nc2ccc(-n3nccn3)cc2)ncc1C#CCCCNC(=O)[C@H](C)N(C)C(=O)/C=C/CN(C)C [Compound 22-16]
10 | < 0.01 | < 0.01 | < 0.01 | CCCNc1nc(Nc2ccc(-n3ccnn3)cc2)ncc1C#CCCCNC(=O)[C@H](C)N(C)C(=O)/C=C/CN(C)C [Compound 22-17]
11 | < 0.01 | < 0.01 | < 0.01 | CCCNc1nc(Nc2cccc(-n3cccn3)c2)ncc1C#CCCCNC(=O)[C@H](C)N(C)C(=O)/C=C/CN(C)C [Compound 22-18]
12 | < 0.01 | < 0.01 | < 0.01 | CCCNc1nc(Nc2cccc(-n3nccn3)c2)ncc1C#CCCCNC(=O)[C@H](C)N(C)C(=O)/C=C/CN(C)C [Compound 22-19]
13 | < 0.01 | < 0.01 | < 0.01 | CCCNc1nc(Nc2cccc(-n3ccnn3)c2)ncc1C#CCCCNC(=O)[C@H](C)N(C)C(=O)/C=C/CN(C)C [Compound 22-20]
14 | < 0.01 | < 0.01 | < 0.01 | CCCNc1nc(Nc2ncc(C#N)s2)ncc1C#CCCCNC(=O)[C@H](C)N(C)C(=O)/C=C/CN(C)C [Compound 22-22]
15 | < 0.01 | < 0.01 | < 0.01 | CNc1ncc(C#CCCCNC(=O)[C@H](C)N(C)C(=O)/C=C/CN(C)C)c(Nc2ccc(OC)nc2)n1 [Compound 22-23]
16 | 0.01 to 0.1 | 0.01 to 0.1 | 0.01 to 0.1 | COc1ccc(Nc2nc(NC3CC3)ncc2C#CCCCNC(=O)[C@H](C)N(C)C(=O)/C=C/CN(C)C)cn1 [Compound 22-24]
17 | < 0.01 | < 0.01 | < 0.01 | CCCNc1nc(Nc2ccc3c(c2)c(OC)nn3C)ncc1C#CCCCNC(=O)[C@H](C)N(C)C(=O)/C=C/CN(C)C [Compound 22-25]
18 | 0.01 to 0.1 | 0.01 to 0.1 | < 0.01 | CCCNc1nc(Nc2ccc3c(OC)nn(C)c3c2)ncc1C#CCCCNC(=O)[C@H](C)N(C)C(=O)/C=C/CN(C)C [Compound 22-26]
19 | < 0.01 | < 0.01 | < 0.01 | CCCNc1nc(Nc2cnc3c(cnn3C)c2)ncc1C#CCCCNC(=O)[C@H](C)N(C)C(=O)/C=C/CN(C)C [Compound 22-27]

Row | IC50 (Molm-13 cells) [µM] | IC50 (MV4-11 cells) [µM] | IC50 [1] [µM] | SMILES
20 | < 0.01 | < 0.01 | < 0.01 | CCCNc1nc(Nc2cnc3c(c2)c(C)nn3C)ncc1C#CCCCNC(=O)[C@H](C)N(C)C(=O)/C=C/CN(C)C [Compound 22-28]
21 | < 0.01 | < 0.01 | < 0.01 | CCCNc1nc(Nc2cnc3c(c2)c(OC)nn3C)ncc1C#CCCCNC(=O)[C@H](C)N(C)C(=O)/C=C/CN(C)C [Compound 22-29]
22 | < 0.01 | < 0.01 | < 0.01 | CCCNc1nc(Nc2ccc3c(c2)c(OC)nn3C)ncc1C#CCCCNC(=O)[C@@H]1CCCN1C(=O)/C=C/CN(C)C [Compound 22-30]
23 | < 0.01 | < 0.01 | < 0.01 | CCCNc1nc(Nc2ccc3c(cnn3C)c2)ncc1C#CCCCNC(=O)[C@@H]1CCCN1C(=O)/C=C/CN(C)C [Compound 22-31, (S,E)-1-(4-(Dimethylamino)-2-butenoyl)-N-(5-(2-((1-methyl-1H-indazol-5-yl)amino)-4-(propylamino)pyrimidin-5-yl)-4-pentyn-1-yl)pyrrolidine-2-carboxamide]
24 | < 0.01 | < 0.01 | < 0.01 | CCCNc1nc(Nc2ccc3cnn(C)c3c2)ncc1C#CCCCNC(=O)[C@@H]1CCCN1C(=O)/C=C/CN(C)C [Compound 22-32]
25 | < 0.01 | < 0.01 | < 0.01 | CCCNc1nc(Nc2ccc3cnn(CCOC)c3c2)ncc1C#CCCCNC(=O)[C@@H]1CCCN1C(=O)/C=C/CN(C)C [Compound 22-33]
26 | < 0.01 | < 0.01 | < 0.01 | COCCNc1nc(Nc2cccc(F)c2)ncc1C#C[C@@H]1CCC[C@H](NC(=O)[C@H](C)N(C)C(=O)/C=C/CN(C)C)C1 [Compound 22-36]
27 | < 0.01 | < 0.01 | < 0.01 | COCCNc1nc(Nc2ccc(F)cc2)ncc1C#C[C@@H]1CCC[C@H](NC(=O)[C@H](C)N(C)C(=O)/C=C/CN(C)C)C1 [Compound 22-37]
28 | < 0.01 | < 0.01 | < 0.01 | COCCNc1nc(Nc2cccc(C#N)c2)ncc1C#C[C@@H]1CCC[C@H](NC(=O)[C@H](C)N(C)C(=O)/C=C/CN(C)C)C1 [Compound 22-38]
29 | < 0.01 | < 0.01 | < 0.01 | COCCNc1nc(Nc2ccc(C#N)cc2)ncc1C#C[C@@H]1CCC[C@H](NC(=O)[C@H](C)N(C)C(=O)/C=C/CN(C)C)C1 [Compound 22-39]
30 | < 0.01 | < 0.01 | < 0.01 | CCCNc1nc(Nc2cnc3c(cnn3CCOC)c2)ncc1C#CCCCNC(=O)[C@H](C)N(C)C(=O)/C=C/CN(C)C [Compound 22-40]
31 | < 0.01 | < 0.01 | < 0.01 | CCCNc1nc(Nc2cnc3c(c2)c(C)nn3CCOC)ncc1C#CCCCNC(=O)[C@H](C)N(C)C(=O)/C=C/CN(C)C [Compound 22-41]
32 | < 0.01 | < 0.01 | < 0.01 | CCCNc1nc(Nc2ccc3c(OC)nn(C)c3c2)ncc1C#CCCCNC(=O)[C@@H]1CCCN1C(=O)/C=C/CN(C)C [Compound 22-42]
33 | < 0.01 | < 0.01 | < 0.01 | CCCNc1nc(Nc2cnc3c(cnn3C)c2)ncc1C#CCCCNC(=O)[C@@H]1CCCN1C(=O)/C=C/CN(C)C [Compound 22-43, (S,E)-1-(4-(Dimethylamino)-2-butenoyl)-N-(5-(2-((1-methyl-1H-pyrazolo[3,4-b]pyridin-5-yl)amino)-4-(propylamino)pyrimidin-5-yl)-4-pentyn-1-yl)pyrrolidine-2-carboxamide]
34 | < 0.01 | < 0.01 | < 0.01 | CCCNc1nc(Nc2cnc3c(cnn3CCOC)c2)ncc1C#CCCCNC(=O)[C@@H]1CCCN1C(=O)/C=C/CN(C)C [Compound 22-44, (S,E)-1-(4-(Dimethylamino)-2-butenoyl)-N-(5-(2-((1-(2-methoxyethyl)-1H-pyrazolo[3,4-b]pyridin-5-yl)amino)-4-(propylamino)pyrimidin-5-yl)-4-pentyn-1-yl)pyrrolidine-2-carboxamide]
35 | < 0.01 | < 0.01 | < 0.01 | CCCNc1nc(Nc2cnc3c(c2)c(C)nn3C)ncc1C#CCCCNC(=O)[C@@H]1CCCN1C(=O)/C=C/CN(C)C [Compound 22-45]
36 | < 0.01 | < 0.01 | < 0.01 | CCCNc1nc(Nc2cnc3c(c2)c(C)nn3CCOC)ncc1C#CCCCNC(=O)[C@@H]1CCCN1C(=O)/C=C/CN(C)C [Compound 22-46]
37 | < 0.01 | < 0.01 | < 0.01 | CCCNc1nc(Nc2cnc3c(c2)c(OC)nn3C)ncc1C#CCCCNC(=O)[C@@H]1CCCN1C(=O)/C=C/CN(C)C [Compound 22-47]
